Test results: PMC10542788, “Discovery of a cystathionine γ-lyase (CSE) selective inhibitor targeting active-site pyridoxal 5′-phosphate (PLP) via Schiff base formation” (Scientific Reports, 2023)

Experiments:
methionine γ-lyase (MGL) = test system: methionine γ-lyase (MGL); set-up: method as in PMID 12920135; conditions: cited from earlier work
ALT = ALT inhibition, coupled absorbance assay (NADH, 340 nm); format: biochemical; conditions: 30 µM
Method: (§1) The selectivity of 1, 2 and PAG for rCSE over other RSS-producing enzymes, CBS and 3MST, was examined (Fig. 4a). CBS is a PLP-dependent enzyme, like CSE, and produces H2S from cysteine and homocysteine as substrates. 3MST is also an H2S-producing enzyme, but is not PLP-dependent and uses 3-mercaptopyruvate as a substrate. The amount of H2S produced by CBS or 3MST was evaluated in the presence or absence of the inhibitor by measuring the fluorescence intensity of HSip-1. […] We also examined the inhibitory activity towards two other PLP-dependent enzymes, MGL and ALT. MGL metabolizes L-methionine to α-ketobutyric acid, methanethiol and ammonia, and is inhibited by PAG[14]. MGL also produces H2S from homocysteine as a substrate, and this activity of MGL can be measured by fluorescence detection with HSip-1. […] The enzymatic activity of ALT can be assessed by means of a coupled assay using the reduction of pyruvate to L-lactate with lactate dehydrogenase and NADH and measuring the change in absorption of NADH.
An alanine aminotransferase activity assay kit (BioVision, Inc.) was used to measure the activity of ALT. A mixture of L-alanine, NADH, LDH (lactate dehydrogenase) and ALT was incubated at 37 °C for 15 min, then α-ketoglutarate was added to the mixture and the absorbance at 340 nm was measured with a microplate reader.

[1] = test system: L-alanine transaminase (ALT); set-up: method as in PMID 7364752; conditions: cited from earlier work
MGL = MGL inhibition, HSip-1 fluorescence; format: biochemical; conditions: 30 µM
Method: as §1
10 µL of 200 µM homocysteine in 30 mM HEPES (pH 7.4) was added to 10 µL of a solution containing 20 µg/mL MGL (Sigma-Aldrich), 100 µM PLP, 1 µM HSip-1, 0.005% tween 20 and various concentrations of the inhibitor (0.5% DMSO as a cosolvent). The mixture was incubated at 25 °C for 100 min and the fluorescence intensity of HSip-1 was measured with a microplate reader.

rat CSE (rCSE) = biological target: T1, rat CSE (rCSE) (Rattus norvegicus, UniProt P18757); experiment: rCSE inhibition, H2S detection by fluorescence of HSip-1; format: biochemical; conditions: for IC50: fluorescence assay with HSip-1, 1.5 mM cysteine, 100 μM PLP, mean ± S.E., read-out: IC50, inhibitory activity towards rCSE
T1 construct: His-tag (C); made in house; host or cells: E. coli BL21
Method: The developed assay system employs a plate reader to detect H2S production by CSE as a fluorescence signal in a solution containing 30 μg/mL rat CSE (rCSE), 1 μM HSip-1, 100 μM pyridoxal-5′-phosphate (PLP) and 1.5 mM cysteine (a substrate) in a 384-well plate format (Fig. 1b). A large amount of rCSE was expressed in E. coli and purified on a Ni Sepharose 6 Fast Flow module. We then performed screening of a chemical library consisting of 161,600 compounds (from the Drug Discovery Initiative, the University of Tokyo) for CSE inhibitors (Fig. 1c). […] Then, a confirmation test for repeatability (n = 4) of the 160 compounds selected in the 1st screening was performed to exclude false-positives. In this step, we also excluded cysteine-reactive compounds by changing the addition order of the rCSE and cysteine (substrate) solutions. In other words, in the 1st screening, the enzyme solution was firstly added to each library compound, while in the confirmation test for repeatability of the hit compounds in the 1st screening, we firstly added the cysteine solution to each compound. This enabled us to identify and exclude cysteine-reactive compounds, based on their reaction with the added cysteine. These procedures left 80 compounds showing both more than 40% inhibition at 10 µM and similar % inhibition of rCSE irrespective of the addition order of the rCSE and cysteine solutions. In the 2nd screening, we examined the reactivity of these 80 compounds with H2S using an H2S donor[17] to exclude H2S-reactive compounds. […] In this assay, we selected 13 compounds which were non-reactive to H2S, but one was relatively unstable and two of them were the same compound, so that 11 compounds were finally selected. These compounds included some hydrazine and hydrazide derivatives, so we performed titration assay of the selected 11 compounds together with 9 commercially available hydrazine and hydrazide compounds (Supplementary Fig. S3) and calculated the half-maximal (50%) inhibitory concentration (IC50) of each compound.
The fluorescence intensity of HSip-1 was measured (λex = 490 nm, λem = 510 nm) with a microplate reader (EnVision, Perkin Elmer).
10 µL of 1.5 mM cysteine solution in 30 mM HEPES (pH 7.4) was added to 10 µL of solution containing 30 µg/mL rCSE, 100 µM PLP, 1 µM HSip-1, 0.005% tween 20 and the test compound (0.5% DMSO as a cosolvent). The mixture was incubated at 25 °C for 3 h and the fluorescence intensity of HSip-1 was measured with a microplate reader.

Row | IC50 (rat CSE (rCSE)) [µM] | Compound | inhibition of MGL (methionine γ-lyase (MGL)) | inhibitory activity towards ALT / selectivity for CSE over ALT (ALT) | inhibition of ALT [1] | inhibitory activity towards MGL / selectivity for CSE over MGL (MGL) | selectivity for CSE over other enzymes (CBS, 3MST, MGL, ALT) (rat CSE (rCSE); 3 µM)
1 | – | C#CCC(N)C(=O)O (racemic) [PAG, D,L-Propargylglycine, reference compound] | inhibited | inhibited both MGL and ALT | inhibited | inhibited both MGL and ALT | –
2 | 0.43 ± 0.02 | CNC(=O)C(=O)NN [Compound 2] | – | some inhibitory activity towards MGL and ALT | – | some inhibitory activity towards MGL and ALT | high selectivity for CSE
3 | > 100 | CCNC(=O)C(=O)NN [Compound 3] | – | – | – | – | –
4 | > 100 | NNC(=O)C(=O)Nc1ccccc1 [Compound 4] | – | – | – | – | –
